Source: ChEMBL document CHEMBL4825725, “Synthesis and interaction of terminal unsaturated chemical probes with Mycobacterium tuberculosis CYP124A1” (Bioorg Med Chem, 2021)
The source made the active and inactive calls. No cut-off for these calls is given here.

What was measured:
[1] = Binding affinity to Mycobacterium tuberculosis CYP124A1 by UV-visible spectrophotometric analysis; conditions: read-out: Kd(app)
[2] = tested on: Mycobacterium tuberculosis; assay: Inhibition of Mycobacterium tuberculosis CYP124A1 at 50 uM incubated for 10 mins in presence of ferridoxin, ferridoxin-NADP+ reductase and NADPH by HPLC analysis
[3] = Drug metabolism assessed as Mycobacterium tuberculosis CYP124A1-mediated drug oxidation at 50 to 250 uM in presence of ferridoxin, ferridoxin-NADP+ reductase and NADPH by GC-MS analysis; assay type: ADME; conditions: recombinant enzyme, dose 50-250 µM

SMILES	Kd [1] [µM]	inhibition [2]	Drug metabolism [3]
CC(C)CCCC(C)CCCC(C)CCCC(C)CC(=O)O (centres undefined)	0.22		
C=CCOC/C(C)=C/CC/C(C)=C/CC/C(C)=C/CO	2.9	inactive	Metabolite_Notdetected
CC(C)=CCC/C(C)=C/CC/C(C)=C/CO [FARNESOL]	1.04		
C#CCOC/C(C)=C/CC/C(C)=C/CC/C(C)=C/CO	1.5	inactive	Metabolite_Notdetected
C=CCOC/C(C)=C/CC/C(C)=C/CO	49.4	inactive	Metabolite_Notdetected
C#CCOC/C(C)=C/CC/C(C)=C/CO	14.6	inactive	Metabolite_Notdetected
